Consider 16 compounds from patent US5872139A, “Heterocyclymethylamino derivatives of cyclobutene-3,4-diones” (American Home Products Corporation, priority 1997, dated 1999).

The subject of the first experiment is Isolated Rat Bladder Strips. In words: Inhibition of contractions in isolated rat bladder strips (KCl-stimulated). The settings on record: 30 μM, 15 mM KCl, read-out: Percent inhibition (I) at 30 μM. The experiment is classed as cell-based, Sprague-Dawley rats. The source says:
The smooth muscle relaxing activity of the compounds of this invention was established in accordance with standard pharmaceutically accepted test procedures with representative compounds as follows:
Sprague-Dawley rats (150-200 g) are rendered unconscious by CO2 asphyxiation and then euthanized by cervical dislocation. The bladder is removed into warm (37 deg. C.) physiological salt solution (PSS) of the following composition (mM): NaCl, 118.4; KCl, 4.7; CaCl2, 2.5; […]; NaHCO3, 24.9; KH2 PO4, 1.2; glucose, 11.1; EDTA, 0.023; gassed with […]; pH 7.4. The bladder is opened and then cut into strips 1-2 mm in width and 7-10 mm in length. The strips are subsequently suspended in a 10 mL tissue bath under an initial resting tension of 1.5 g. The strips are held in place by two surgical clips one of which is attached to a fixed hook while the other is attached to an isometric force transducer. […] The carbachol is then washed out and the tissue allowed to relax to its resting level of activity. Following a further 30 min period of recovery an additional 15 mM KCl are introduced into the tissue bath. This increase in KCl concentration results in a large increase in the amplitude of spontaneous contractions (and initiation of contractions in previously quiescent strips) superimposed upon a small increase in basal tone. Following stabilization of this enhanced level of contractile activity, incremental increases in the concentration of test compound or vehicle are introduced into the tissue bath. Contractile activity is measured for each compound or vehicle concentration during the last minute of a 30 minute challenge.
The isometric force developed by the bladder strips is measured using a […] to elicit 50% inhibition of pre-drug contractile activity (IC50 concentration) and is calculated from this concentration-response curve.
Regarding `CC(C)N(C)c1c(NCc2ccncc2)c(=O)c1=O` [Example 7, 3-(Isopropyl-methyl-amino)-4-[(pyridin-4-ylmethyl)-amino]-cyclobut-3-ene-1,2-dione], the inhibition at 30 µM was 27.3 ± 7%.

With `CCC(C)(C)Nc1c(NCc2cc3cc([N+](=O)[O-])ccc3o2)c(=O)c1=O` [Example 9, 3-(1,1-Dimethyl-propylamino)-4-[(5-nitro-benzofuran-2-ylmethyl)-amino]-cyclobut-3-ene-1,2-dione], the inhibition at 30 µM came to 22.2 ± 7.4%.

As to `CC(C)(C)Nc1c(NCc2cc3cc([N+](=O)[O-])ccc3o2)c(=O)c1=O` [Example 10, 3-tert-butylamino-4-[(5-nitro-benzofuran-2-ylmethyl)-amino]-cyclobut-3-ene-1,2-dione], the inhibition at 30 µM came to 11.5 ± 3.2%.

On to `C[C@@H](Nc1c(NCc2cc3cc(C#N)ccc3o2)c(=O)c1=O)C(C)(C)C` [Example 12, 2-{[3,4-Dioxo-2-(1,2,2-trimethyl-propylamino)-cyclobut-1-enylamino]-methyl}-benzofuran-5-carbonitrile], for which the inhibition at 30 µM worked out at 5.5 ± 4%.

For the compound `CC(C)(C)Nc1c(NCc2cc3cc(C#N)ccc3o2)c(=O)c1=O` [Example 13, 2-[(2-tert-butylamino-3,4-dioxo-cyclobut-1-enylamino)-methyl]-benzofuran-5-carbonitrile], the inhibition at 30 µM was found to be 19.9 ± 8.5%.

On to `CC(C)(Cc1ccccc1)Nc1c(NCc2cc3cc(C#N)ccc3o2)c(=O)c1=O` [Example 14, 2-{[2-(1,1-Dimethyl-2-phenyl-ethylamino)-3,4-dioxo-cyclobut-1-enylamino]-methyl}-benzofuran-5-carbonitrile], for which the inhibition at 30 µM was 31.9 ± 6.4%.

The experiment is the same for the next values; noted with them: 0.5 h, 30 μM, 15 mM KCl, read-out: Percent contraction (C) at 30 μM.
On to `C[C@@H](Nc1c(NCc2cc3cc([N+](=O)[O-])ccc3o2)c(=O)c1=O)C(C)(C)C` [Example 8, 3-[(5-nitro-benzofuran-2-ylmethyl)-amino]-4-(1,2,2-trimethylpropylamino)-cyclobut-3-ene-1,2-dione], for which the activity at 30 µM worked out at 8.5 ± 1.4%.

Staying with this experiment, now noted: 0.5 h, 15 mM KCl, 30 minute challenge.
Regarding `CCC(C)(C)Nc1c(NCc2ccncc2)c(=O)c1=O` [Example 1, 3-(1,1-Dimethylpropylamino)-4-[(pyridin-4-ylmethyl)-amino]-cyclobut-3-ene-1,2-dione], 420 ± 60 nM corresponded to half-maximal inhibition (IC50).

Take `CCC(C)(C)Nc1c(NCc2cccnc2)c(=O)c1=O` [Example 2]: 1250 ± 390 nM corresponded to half-maximal inhibition (IC50).

On to `CCC(C)(C)Nc1c(NCc2ccccn2)c(=O)c1=O` [Example 3, 3-(1,1-Dimethylpropylamino)-4-[(pyridin-2-ylmethyl)amino]-cyclobut-3-ene-1,2-dione], for which half-maximal inhibition (IC50) was put at 1250 ± 340 nM.

In turn, `CC(C)(C)Nc1c(NCc2ccncc2)c(=O)c1=O` [Example 4, 3-tert-Butylamino-4-[(pyridin-4-ylmethyl)amino]-cyclobut-3-ene-1,2-dione] had a half-inhibitory concentration (IC50) of 3000 ± 200 nM. Against the preceding compound, the IC50 is about 2.4-fold higher.

Compound `CC(C)(C)Nc1c(NCc2cccnc2)c(=O)c1=O` [Example 5, 3-tert-Butylamino-4-[(pyridin-3-ylmethyl)amino]-cyclobut-3-ene-1,2-dione] yielded an IC50 of 2630 ± 220 nM.

`CC(C)(C)Nc1c(NCc2ccccn2)c(=O)c1=O` [Example 6, 3-tert-Butylamino-4-[(pyridin-2-ylmethyl)amino]-cyclobut-3-ene-1,2-dione] had an IC50 of 11400 ± 4300 nM.

`CCC(C)(C)Nc1c(NCc2cc3cc(C#N)ccc3o2)c(=O)c1=O` [Example 11, 2-{[2-(1,1-Dimethyl-propylamino)-3,4-dioxo-cyclobut-1-enylamino]-methyl}-benzofuran-5-carbonitrile]: the IC50 was determined as 1560 ± 160 nM.

Take `C[C@@H](Nc1c(NCc2cc3cc(C#N)ccc3o2)c(=O)c1=O)C(C)(C)C` [Example 12, 2-{[3,4-Dioxo-2-(1,2,2-trimethyl-propylamino)-cyclobut-1-enylamino]-methyl}-benzofuran-5-carbonitrile]: the IC50 amounted to 3750 ± 1440 nM.

`CC(Nc1c(NCc2ccncc2)c(=O)c1=O)C(C)(C)C` (stereo not drawn) [Example 15, 3-[(Pyridin-4-ylmethyl)-amino]-4-(1,2,2-trimethyl-propylamino)-cyclobut-3-ene-1,2-dione] showed a half-maximal inhibitory concentration (IC50) of 2450 ± 990 nM.

The compound `CCC(C)(C)Nc1c(NCc2oc3ccc(C#N)cc3c2Cl)c(=O)c1=O` [Example 16, 2-{[2-(1,1-Dimethyl-propylamino)-3,4-dioxo-cyclobut-1-enylamino]-methyl}-3-chloro-benzofuran-5-carbonitrile] yielded an IC50 of 1300 ± 630 nM.

The subject of a further experiment is hypertrophied bladder (detrussor) smooth muscle. Kind of experiment: Inhibition of spontaneous contractions in vivo, hypertrophied rat bladder model (conscious rats, cystometry). Also on record: species or system female Sprague-Dawley rats. The settings on record: 10 mg/kg p.o., 3 animals, conscious female rats, second cystometry one hour after dosing. The protocol: In addition, we tested the ability of the compound of Example 1, as representative of the other compounds of this invention, to inhibit the hyperactivity of hypertrophied bladder (detrussor) smooth muscle in conscious female rats with hypertrophied bladders and thereby alleviate urinary incontinence according to the protocol described by Malmgrem et al., J. Urol. 142:1134, 1989.
Female Sprague-Dawley rats, ranging in weight from 190-210 g are used. Up to 25 animals are prepared each time. After development of bladder hypertrophy 4-8 animals are used per test.
Compounds are dissolved in PEG-200 and administered by gastric gavage or intraveneously in a volume of 5 ml/kg. For primary screening all drugs are administered at the arbitrary dose of 10 mg/kg p.o. to groups of 4 rats.
The animals are anesthetized with halothane. […]
The following urodynamic variables are recorded:
The mean value of each variable is calculated before and after compound administration. For each compound the changes in the variables measured are compared to the values obtained before treatment and expressed as percent inhibition. The data are also subjected to 2-way analysis of variance to determine significant (p<0.05) changes in the variable measured.
For `CCC(C)(C)Nc1c(NCc2ccncc2)c(=O)c1=O` [Example 1, 3-(1,1-Dimethylpropylamino)-4-[(pyridin-4-ylmethyl)-amino]-cyclobut-3-ene-1,2-dione], the “% Red (F): percent reduction in the total number of spontaneous contractions in the hypertrophied rat bladder model” value was -8 ± 4%.
